Here are results for four compounds from patent publication US20260207600A1, “METHODS OF TREATMENT WITH MYOSIN MODULATOR” (MYOKARDIA, INC., priority 2019, published 2026).

Data set [1] deals with Yucatan mini-pigs with a heterozygous MYH7 R403Q mutation. The data set can be described thus: Chronic MYK-581 in mini-pig genetic model of non-obstructed HCM (cMR imaging, invasive hemodynamics, dobutamine challenge). Type of data set: in vivo. The method, then: The mini-pigs were treated for at least 12 weeks and were evaluated as shown in Schematic 1 below. […] After ~14 weeks of treatment, all pigs underwent in vivo cMR imaging for the assessment of LV function and geometry, as well as of myocardial composition via of Late Gadolinium Enhancement (LGE) and T1 mapping techniques including extracellular volume (ECV) assessments. In addition, a subset of animals (MYK: n=6, CTRL: n=5) also underwent terminal invasive hemodynamics assessments, including cardiac output (CO, via thermodilution), load-independent systolic/diastolic function (via LV pressure-volume relationships), and β-adrenergic (β-AR) cardiac reserve (via dobutamine at 5 μg/kg/min IV).
The mini-pig model can be obtained following the method disclosed in a presentation entitled “A Minipig Genetic Model of Hypertrophic Cardiomyopathy Uncovers the Pathophysiological Mechanisms of Disease Evolution”, by E. Green et al., at University of Iowa, Carver College of Medicine.

Data set [2] can be described thus: Solubility estimates at ambient temperature. Type of data set: physicochemical. Conditions: for solubility: organic solvent or mixture, thermodynamic from solid, read-out: solubility estimate. The protocol:
Solubilities were calculated based on the total solvent used to give a solution; actual solubilities may be greater because of the volume of solvent portions utilized or a slow rate of dissolution. […] If dissolution occurred at the first aliquot, the value was reported as “>”.
Solubility estimates at ambient temperature were performed in 25 solvents and solvent systems using Form A (Lot 2-4) (Table 13.3).

Data set [3] has as its system conscious Sprague-Dawley rats. The data set can be described thus: Positive inotropic challenge (dobutamine, levosimendan) after supra-therapeutic mavacamten, echocardiography. Type of data set: in vivo, rat. Conditions: healthy rats exposed to a supra-therapeutic dose of mavacamten. The method, then: Methods: The responsiveness of mavacamten-induced cardio-depression to positive inotropic challenges was assessed in a set of conscious Sprague-Dawley rats. In these animals, functional reserve was assessed via either dobutamine (+DOB, 10 μg/kg/min IV for 10 min, n=7) or levosimendan (+LEVO, 0.3 μmol/kg IV over […]; n=6) challenges given 3 hrs following a single-dose administration of MAVA (at 4 mg/kg, PO). Cardiac function/geometry were recorded and compared at three separate time-points/days: prior to dosing (i.e., at baseline) and at 3 hrs post-dosing both before as well as during the inotropic challenge; in order to account for the levosimendan-induced changes in loading conditions, an additional echocardiographic examination was performed following acute preload-restoration in LEVO-treated rats (+LEVO/F, 0.9% NaCl at 30 mL/kg/hr IV).
In these experiments, left-ventricular fractional shortening (FS), an index of systolic performance, as well as LV dimensions/volumes and heart rates were measured using a high-frequency transducer and parasternal long-axis transthoracic views (Vevo2100, VisualSonic). FS was defined as the end-diastole normalized change in internal dimensions/diameter of the left ventricle between end-systole (LVESd) and end-diastole (LVEDd) (i.e., FS=100·[LVEDd−LVESd]/LVEDd). LV volumes were derived assuming a Teichholz model (LVV=7·[2.4+LVid]−1·LVid3).

SMILES strings stand for the structures. Like-named read-outs stand apart in the source and are kept apart here.

Compound `CC(C)n1c(=O)cc(N[C@@H](C)c2cccc(F)c2)[nH]c1=O` [MYK-581, (S)-6-((1-(3-fluorophenyl)ethyl)amino)-3-isopropylpyrimidine-2,4 (1H,3H)-dione] had an LV stiffness in data set [1] (control 3.5±0.3) of 1.3±0.2 mmHg/mL. The same compound displayed an LV end-diastolic pressures in data set [1] (control 23±4) of 9±1 mmHg. Besides, the left-atrial volumes in data set [1] (control 29±4) turned out to be 16 ± 1 mL. This compound also returned an ECV in data set [1] (control 32±2) of 27±1%. For the same compound, the LV mass in data set [1] (control 66±5) is 51 ± 4 g. This compound also had a time-constants of relaxation in data set [1] (control 71±5) of 45 ± 3 ms. For the same compound, in data set [1] (dobutamine challenge, control +26±2), the “CO increase under β-AR challenge” value is on record as “+60±8%”. Also, in data set [1] (dobutamine challenge, control −14±6), the β-AR stroke-volume recruitment entry is reported as “+15±4%”. Moreover, the mortality – broadly, the share of the test organisms that died – in data set [1] (end of the study (~5 months), CTRL 40%) is given as 0%. The compound further had an EF in data set [1] (~14 weeks of treatment, cMR, control 65±2) of 59±2%.
`CC(C)n1c(=O)cc(N[C@@H](C)c2ccccc2)[nH]c1=O` [Form A, (S)-3-isopropyl-6-((1-phenylethyl)amino)-pyrimidine-2,4 (1H,3H)-dione]: the solubility estimate result in data set [2] (methanol, THF, THF/water (90/10, vol/vol) and DMSO/water (90/10, vol/vol)) is recorded as “limited solubility”. Besides, the solubility (as a rule, the concentration that dissolves in the medium under given conditions) in data set [2] (HFIPA and various mixtures with DMSO, NMP and DMF) was at least 20 mg/mL; in data set [2] (anisole, isopropanol, MIBK, nitromethane, and toluene), at most 1 mg/mL.
For `CC(CCc1ccc(O)cc1)NCCc1ccc(O)c(O)c1` (stereo not drawn) [dobutamine], the “echocardiography-derived indices of systolic function after supra-therapeutic mavacamten” value in data set [3] is “successfully rescued/restored”.
Take `C[C@@H]1CC(=O)NN=C1c1ccc(NN=C(C#N)C#N)cc1` [levosimendan]: the “echocardiography-derived indices of systolic function after supra-therapeutic mavacamten” value in data set [3] was “successfully rescued/restored”.
